Results taken from ChEMBL document CHEMBL3632594, “Synthesis of scutellarein derivatives to increase biological activity and water solubility” (Bioorg Med Chem, 2015).
≈ marks a conversion by molar mass, not a printed value.

What was measured:
[1] = Antithrombotic activity in New Zealand white rabbit platelet poor plasma assessed as increase in prothrombin time at 100 uM incubated for 3 mins by coagulometer based assay; format: functional, Oryctolagus cuniculus
[2] = Neuroprotective activity against H2O2-induced cytotoxicity in rat PC12 cells assessed as cell viability at 50 uM by MTT assay; format: functional; conditions: PC-12, read-out: INH
[3] = Antioxidant activity assessed as DPPH radical scavenging by spectrophotometric analysis; format: physicochemical
[4] = Antithrombotic activity in New Zealand white rabbit platelet poor plasma assessed as prolongation of thrombin time at 100 uM incubated for 3 mins by coagulometer based assay; format: functional, Oryctolagus cuniculus
[5] = Antithrombotic activity in New Zealand white rabbit platelet poor plasma assessed as fibrinogen at 100 uM incubated for 3 mins by coagulometer based assay; format: functional, Oryctolagus cuniculus
[6] = Solubility of compound in water at 0.1 to 10 ug/ml by UV spectrophotometry; format: physicochemical
[7] = Solubility of compound in water at 0.1 to 10 ug/ml by UV spectrophotometry relative to scutellarein; format: physicochemical; conditions: buffer
[8] = Antithrombotic activity in New Zealand white rabbit platelet poor plasma assessed as increase in activated partial thromboplastin time at 100 uM incubated for 3 mins by coagulometer based assay; format: functional, Oryctolagus cuniculus
[9] = Neuroprotective activity against H2O2-induced cytotoxicity in rat PC12 cells assessed as cell viability at 25 uM by MTT assay; format: functional; conditions: PC-12, read-out: INH

SMILES	PT [1]	cell viability at 50 µM [2]	IC50 [3]	TT [4]	Activity [5]	solubility [6]	fold change (FC) [7]	APTT [8]	neuroprotection (% cell viability vs H2O2 cytotoxicity) at 25 µM [9]
O=C(Oc1ccc(-c2cc(=O)c3c(O)c(O)c(O)cc3o2)cc1)N1CCOCC1	8.55 s	94.2%	19.3 µM	24.62 s	5.52 g/L	15.3 µg/mL (≈ 38.4 µM)	2.34	28.28 s	73.9%
CN(C)C(=O)COc1ccc(-c2cc(=O)c3c(O)c(O)c(O)cc3o2)cc1	7.17 s	68.1%	80.7 µM	22.27 s	5.14 g/L	9.32 µg/mL (≈ 25.1 µM)	1.36	29.25 s	46.5%
O=c1cc(-c2ccc(OCCCN3CCOCC3)cc2)oc2cc(O)c(O)c(O)c12	6.63 s	44.2%	274 µM	19.6 s	5.42 g/L	8.56 µg/mL (≈ 20.7 µM)	1.25	28.25 s	28.3%
CN(C)CCOc1ccc(-c2cc(=O)c3c(O)c(O)c(O)cc3o2)cc1	6.82 s	56.2%	215 µM	22.97 s	5.11 g/L	9.28 µg/mL (≈ 26 µM)	1.35	29.97 s	35.8%
CCN(CC)CCOc1ccc(-c2cc(=O)c3c(O)c(O)c(O)cc3o2)cc1	6.9 s	58.4%	205 µM	22.03 s	5.72 g/L	8.68 µg/mL (≈ 22.5 µM)	1.27	30.45 s	38.5%
CN(C)C(=O)Oc1ccc(-c2cc(=O)c3c(O)c(O)c(O)cc3o2)cc1	8.1 s	71.2%	37.2 µM	24.3 s	5.56 g/L	9.56 µg/mL (≈ 26.8 µM)	1.4	27.78 s	48.7%
CCN(CC)C(=O)Oc1ccc(-c2cc(=O)c3c(O)c(O)c(O)cc3o2)cc1	7.67 s	75.2%	32.6 µM	24.36 s	5.21 g/L	9.23 µg/mL (≈ 24 µM)	1.35	28.2 s	51.3%
O=C(O)[C@H]1O[C@@H](Oc2cc3oc(-c4ccc(O)cc4)cc(=O)c3c(O)c2O)[C@H](O)[C@@H](O)[C@@H]1O [SCUTELLARIN]	6.28 s	79.2%	27.9 µM	23.08 s	6.13 g/L	–	–	34.18 s	53.1%
CC(C)N(C(=O)Oc1ccc(-c2cc(=O)c3c(O)c(O)c(O)cc3o2)cc1)C(C)C	7.97 s	93.4%	17 µM	24.57 s	5.65 g/L	8.67 µg/mL (≈ 21 µM)	1.27	27.97 s	71.7%
CN1CCN(C(=O)Oc2ccc(-c3cc(=O)c4c(O)c(O)c(O)cc4o3)cc2)CC1	7.03 s	92.5%	18.9 µM	24.52 s	5.42 g/L	15.1 µg/mL (≈ 36.5 µM)	2.2	26.87 s	68.6%
CN(C)CCCOc1ccc(-c2cc(=O)c3c(O)c(O)c(O)cc3o2)cc1	6.15 s	52.2%	231 µM	19.9 s	5.28 g/L	8.5 µg/mL (≈ 22.9 µM)	1.24	26.58 s	33.6%
O=C(COc1ccc(-c2cc(=O)c3c(O)c(O)c(O)cc3o2)cc1)N1CCOCC1	7.33 s	64.6%	83.3 µM	19.9 s	5.49 g/L	9.45 µg/mL (≈ 22.9 µM)	1.38	27.1 s	43.4%
O=c1cc(-c2ccc(OCCN3CCOCC3)cc2)oc2cc(O)c(O)c(O)c12	6.7 s	48.2%	264 µM	19.7 s	5.23 g/L	9.4 µg/mL (≈ 23.5 µM)	1.37	29.05 s	32.3%
O=c1cc(-c2ccc(O)cc2)oc2cc(O)c(O)c(O)c12 [SCUTELLAREIN]	5.93 s	91.2%	22.6 µM	24.4 s	6.84 g/L	–	1	36.65 s	64.6%
CCN(CC)C(=O)COc1ccc(-c2cc(=O)c3c(O)c(O)c(O)cc3o2)cc1	7.45 s	66.4%	81.3 µM	20.92 s	5.37 g/L	8.95 µg/mL (≈ 22.4 µM)	1.31	26.4 s	44.7%
